In this assay the test system is newly diagnosed COPD subjects. Nature of the assay: Test of bronchial reversibility with salbutamol (spirometry, FEV1) before and after 4 and 10 days of erdosteine therapy, double-blind against placebo. Type of assay: in vivo, humans. The protocol: This effect has been found in a trial utilizing the test of bronchial reversibility with salbutamol before and after 4 and 10 days of therapy with erdosteine at the dose of 900 mg/day, that is the maximum dosage presently approved in humans. The standard protocol has been used: spirometry was performed before and 15-20 minutes after the administration of […] of salbutamol with a metered inhaler. For reducing the bias, the study was double-blind against placebo and the patients selected were newly diagnosed COPD subjects never treated with −2 agonists. 7 patients were treated with erdosteine and 7 with placebo in a random order. At baseline, all the patients had only a partial reversibility (mean 2.5%) of bronchial obstruction calculated with the FEV1 (the absolute values were 1.5 liters before salbutamol and 1.537 liters after salbutamol), thus fully meeting the COPD definition. When the test was repeated at Day 4 of therapy, the reversibility of bronchial obstruction in the placebo group was not different from the baseline values (mean increase of FEV1: 0.9%), while in the erdosteine group there was a significant and unexpected increase of post-salbutamol FEV1 values in all the patients (mean increase of FEV1: 7.1%).

Where [1] appears, read: Patient #1, after 4 days of erdosteine therapy.
The mark [2] stands for this setting: Patient #1, after 10 days of erdosteine therapy.
Setting [3] is: Patient #4, after 4 days of erdosteine therapy.
[4] abbreviates: Patient #4, after 10 days of erdosteine therapy.
Setting [5] is: Patient #4, before therapy (baseline).
Where [6] appears, read: baseline, all the patients, before therapy.

The values below come from patent US20080033010A1, “Combination therapy of erdosteine and beta-2 agonists for treating respiratory pathologies characterized by non reversible or partially reversible airway obstruction” (EDMOND PHARMA s.r.l., priority 2006, published 2008).

Each structure is given as a SMILES string.

As for `O=C(O)CSCC(=O)NC1CCSC1=O` (centres unmarked) [erdosteine], the FEV1 post salbutamol turned out to be 2.05 under setting [1]; 2.13 under setting [2]; 1.81 (Patient #1, before therapy (baseline)); 1.96 under setting [3]; 1.92 under setting [4]; 1.26 under setting [5]. For the same compound, the FEV1 pre salbutamol reads like this: under setting [1], 1.85; under setting [3], 1.74. For the same compound, the “increase of FEV1 post vs pre salbutamol” value reads like this: under setting [1], “+10.8%”; under setting [2], “+9.4%”; under setting [3], “+12.6%”; under setting [4], “+13%”; under setting [5], “+5.9%”. Also, the FEV1 pre-salbutamol is 1.93 under setting [2]; 1.81 (Patient #1, before therapy (baseline) (entry two)); 1.19 (Patient #4 (person one), before therapy (baseline)); 1.69 under setting [4]. The “reversal of the bronchial obstruction” value (erdosteine administered with beta agonists vs beta agonist alone) was “much more evident than that obtained with the beta agonist alone”. The “mean increase of FEV1 (reversibility of bronchial obstruction, post-salbutamol)” value is, setting by setting: (erdosteine group (7 patients), Day 4 of therapy, erdosteine 900 mg/day, spirometry 15-20 minutes after salbutamol) 7.1%; (erdosteine group, final control at Day 10, erdosteine 900 mg/day) 10.3%.

On to `CC(C)(C)NCC(O)c1ccc(O)c(CO)c1` (centres unmarked) [salbutamol], for which, where the note is “baseline, all the patients, before erdosteine or placebo therapy, salbutamol alone”, the “partial reversibility of bronchial obstruction calculated with the FEV1 (mean)” value was 2.5%. Under setting [6], the “FEV1 absolute value after salbutamol” value stood at 1.537 L and the “FEV1 absolute value before salbutamol” value is 1.5 L.
